Measurements: ChEMBL document CHEMBL3612012, “Identification of orally-bioavailable antagonists of the TRPV4 ion-channel” (Bioorg Med Chem Lett, 2015)
Converted amounts (≈) assume the structure as drawn.

Legend:
[1] = molecular target: Transient receptor potential cation channel subfamily V member 4 (Rattus norvegicus, UniProt Q9ERZ8); assay: Antagonist activity at rat TRPV4 receptor expressed in HEK293 cells assessed as inhibition of EC80 of 4alpha-PDD-stimulated calcium flux after 10 mins; format: cell-based
Chain of Transient receptor potential cation channel subfamily V member 4 (Rattus norvegicus, UniProt Q9ERZ8) (Q9ERZ8 whole entry): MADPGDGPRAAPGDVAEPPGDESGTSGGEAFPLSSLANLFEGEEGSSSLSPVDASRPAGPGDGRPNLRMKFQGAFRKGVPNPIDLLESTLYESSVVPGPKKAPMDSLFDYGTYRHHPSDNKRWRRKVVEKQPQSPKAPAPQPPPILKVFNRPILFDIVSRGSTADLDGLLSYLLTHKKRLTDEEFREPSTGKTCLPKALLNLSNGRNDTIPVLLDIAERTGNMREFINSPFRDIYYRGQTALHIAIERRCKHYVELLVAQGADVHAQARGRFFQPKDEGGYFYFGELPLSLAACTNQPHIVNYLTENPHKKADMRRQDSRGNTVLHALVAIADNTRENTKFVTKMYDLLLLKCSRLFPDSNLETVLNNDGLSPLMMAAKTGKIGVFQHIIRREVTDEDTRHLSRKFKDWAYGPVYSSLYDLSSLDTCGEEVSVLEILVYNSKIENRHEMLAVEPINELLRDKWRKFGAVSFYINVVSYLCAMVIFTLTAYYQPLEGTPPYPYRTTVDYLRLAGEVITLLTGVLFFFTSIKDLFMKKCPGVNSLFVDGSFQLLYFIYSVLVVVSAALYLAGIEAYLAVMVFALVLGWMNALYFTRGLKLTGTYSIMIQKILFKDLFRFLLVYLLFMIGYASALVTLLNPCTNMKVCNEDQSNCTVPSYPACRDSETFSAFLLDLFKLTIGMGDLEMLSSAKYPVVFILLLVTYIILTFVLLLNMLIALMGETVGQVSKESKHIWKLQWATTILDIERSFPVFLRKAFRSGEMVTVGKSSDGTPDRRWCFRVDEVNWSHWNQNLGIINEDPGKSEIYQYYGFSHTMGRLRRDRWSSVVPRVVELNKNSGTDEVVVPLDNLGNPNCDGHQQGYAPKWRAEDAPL

[2] = molecular target: Transient receptor potential cation channel subfamily V member 4 (Homo sapiens, UniProt Q9HBA0); assay: Antagonist activity at human TRPV4 receptor expressed in HEK293 cells assessed as inhibition of EC80 of 4alpha-PDD-stimulated calcium flux after 10 mins; format: cell-based
Chain of Transient receptor potential cation channel subfamily V member 4 (Homo sapiens, UniProt Q9HBA0) (Q9HBA0 whole entry): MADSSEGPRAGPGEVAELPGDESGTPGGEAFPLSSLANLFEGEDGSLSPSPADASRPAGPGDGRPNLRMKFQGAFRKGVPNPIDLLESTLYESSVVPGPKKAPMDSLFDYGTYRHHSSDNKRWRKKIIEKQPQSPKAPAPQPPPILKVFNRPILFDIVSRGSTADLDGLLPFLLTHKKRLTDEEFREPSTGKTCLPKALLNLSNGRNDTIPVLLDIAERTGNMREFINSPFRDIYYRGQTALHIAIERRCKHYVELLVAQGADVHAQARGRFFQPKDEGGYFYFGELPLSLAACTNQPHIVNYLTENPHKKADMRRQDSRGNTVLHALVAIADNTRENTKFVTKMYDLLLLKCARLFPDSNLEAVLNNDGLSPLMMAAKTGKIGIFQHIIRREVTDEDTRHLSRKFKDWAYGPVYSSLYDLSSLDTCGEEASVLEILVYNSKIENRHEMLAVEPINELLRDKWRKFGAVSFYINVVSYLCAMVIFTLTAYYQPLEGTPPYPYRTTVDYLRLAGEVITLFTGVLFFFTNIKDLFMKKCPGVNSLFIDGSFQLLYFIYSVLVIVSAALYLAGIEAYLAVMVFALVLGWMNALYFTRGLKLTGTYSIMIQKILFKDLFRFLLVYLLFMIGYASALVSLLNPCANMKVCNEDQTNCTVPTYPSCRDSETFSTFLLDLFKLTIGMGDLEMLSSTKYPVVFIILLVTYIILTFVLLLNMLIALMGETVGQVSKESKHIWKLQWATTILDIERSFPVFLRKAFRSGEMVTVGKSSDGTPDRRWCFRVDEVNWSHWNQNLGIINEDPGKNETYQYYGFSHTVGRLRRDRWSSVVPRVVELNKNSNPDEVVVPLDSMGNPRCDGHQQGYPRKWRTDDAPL

[3] = Oral bioavailability in Wistar rat at 1.80 mg/kg; format: ADME, organism-based; conditions: in vivo, 1.8 mg/kg
[4] = Half life in Wistar rat at 1.05 mg/kg, iv; format: ADME, organism-based; conditions: in vivo
[5] = AUC (infinity) in Wistar rat at 1.80 mg/kg, po; format: ADME, organism-based; parameters: dose 1.8 mg/kg, time infinity, route oral; conditions: in vivo, 1.8 mg/kg
[6] = Cmax in Wistar rat at 1.80 mg/kg, po; format: ADME, organism-based; parameters: dose 1.8 mg/kg, route oral; conditions: in vivo, 1.8 mg/kg
[7] = AUC (infinity) in Wistar rat at 1.05 mg/kg, iv; format: ADME, organism-based; parameters: dose 1.05 mg/kg, route intravenous, time infinity; conditions: in vivo
[8] = Plasma protein binding in rat; format: ADME, cell-free; conditions: read-out: PPB (converted)
[9] = Solubility of the compound at pH 7.4; format: physicochemical; conditions: buffer
[10] = Plasma protein binding in human; format: ADME, cell-free; conditions: read-out: PPB (converted)
[11] = Volume of distribution at steady state in Wistar rat at 1.05 mg/kg, iv; format: ADME, organism-based; conditions: in vivo, read-out: Vdss
[12] = Clearance in Wistar rat at 1.05 mg/kg, iv; format: ADME, organism-based; conditions: in vivo

Structure (SMILES)	IC50 [1] [µM]	IC50 [2] [µM]	also measured
CC(C)N1CCN(S(=O)(=O)c2ccc(NC(=O)c3ccc(-c4ncccc4Cl)cc3)cc2)CC1	3.9	0.93	
CC(C)N1CCN(S(=O)(=O)c2ccc(NC(=O)c3ccc(C(C)(C)C)cc3)cc2)CC1	1.05	0.39	
CN(C)C1CCN(S(=O)(=O)c2ccc(NC(=O)c3ccc(C(F)(F)F)cc3)cc2)CC1		2.11	
CC(C)N1CCN(S(=O)(=O)c2ccc(NC(=O)c3ccc(C(F)(F)F)cc3C(F)(F)F)cc2)CC1	0.49	0.54	
CC(C)N1CCN(S(=O)(=O)c2ccc(NC(=O)c3ccc(C(F)(F)F)cc3F)cc2)CC1	0.37	0.38	
CCN(C)C1CCN(S(=O)(=O)c2ccc(NC(=O)c3ccc(C(F)(F)F)cc3)cc2)CC1		1.28	
CC(C)N1CCN(S(=O)(=O)c2ccc(NC(=O)c3ccc(C(F)(F)F)cc3N)cc2)CC1	2.92	0.93	
CC(C)N1CCCN(S(=O)(=O)c2ccc(NC(=O)c3ccc(C(F)(F)F)cc3)cc2)CC1		1.32	
CC(C)N1CCN(S(=O)(=O)c2ccc(NC(=O)c3ccccc3)cc2)CC1	4.3	8.53	
CC(C)N1CCN(S(=O)(=O)c2ccc(NC(=O)c3ccc(S(F)(F)(F)(F)F)cc3)cc2)CC1	0.39	0.26	bioavailability [3]: 22.7%; half-life [4]: 1.03 h; AUC(0-inf) [5]: 0.303 µg·h/mL; Cmax [6]: 0.143 µg/mL; AUC(0-inf) [7]: 0.779 µg·h/mL; fraction unbound [8]: 0.0009; solubility [9]: 0.15 µM (≈ 0.077 µg/mL); fraction unbound [10]: 0.0008; Vd [11]: 2.01 L/kg; clearance [12]: 1.35 L/h/kg
CC(C)N1CCN(S(=O)(=O)c2ccc(NS(=O)(=O)c3ccc(C(F)(F)F)cc3)cc2)CC1	> 10	> 10	
CC(C)N1CCN(S(=O)(=O)c2ccc(NC(=O)c3ccc(-c4ccccn4)cc3)cc2)CC1	6.49	4.93	
O=C(Nc1ccc(S(=O)(=O)N2CCN(C3CCCC3)CC2)cc1)c1ccc(C(F)(F)F)cc1		0.8	
CC(C)N1CCN(C(=O)c2ccc(NC(=O)c3ccc(C(F)(F)F)cc3)cc2)CC1	> 10	> 10	
CN(C)S(=O)(=O)c1ccc(NC(=O)c2ccc(C(F)(F)F)cc2)cc1	5.74	4.22	
CC(C)N1CCN(S(=O)(=O)c2ccc(NC(=O)c3cccc(C(F)(F)F)c3)cc2)CC1	1.94	2.17	
CCN(CC)C1CCN(S(=O)(=O)c2ccc(NC(=O)c3ccc(C(F)(F)F)cc3)cc2)CC1		0.91	
CC(C)N1CCN(S(=O)(=O)c2ccc(NC(=O)c3ccc(C(F)(F)F)cc3)cc2)CC1	0.94	0.71	
